Source: patent US11618743B2, “Herbicidal compounds” (SYNGENTA PARTICIPATIONS AG, priority 2017, dated 2023)

Legend:
Experiment in all cases: Post-emergence efficacy, Method A
Format in all cases: in vivo
[1] = tested on: Echinochloa crus-galli (ECHCG); conditions: Application rate 500 g/Ha, evaluated after 13 days; for Control of weed species after post-emergence application, ECHCG: 100=total damage to plant, 0=no damage; for Control of weed species ECHCG after post-emergence application (100=total damage to plant; 0=no damage to plant): Method A
Outline: (§1)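 Injury assessed 13 days after a post-emergence spray, 0 = no damage and 100 = total damage. Spray liquid: compound in acetone/IF50 (Emulsogen EL360, N-methylpyrrolidone, Dowanol DPM), diluted with 0.25% or 1% sodium lauryl ether sulphate plus 1% ammonium sulphate.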

[2] = tested on: Chenopodium album (CHEAL); conditions: Application rate 500 g/Ha, evaluated after 13 days; for Control of weed species after post-emergence application, CHEAL: 100=total damage to plant, 0=no damage; for Control of weed species CHEAL after post-emergence application (100=total damage to plant; 0=no damage to plant): Method A
Outline: as §1

[3] = tested on: Digitaria sanguinalis (DIGSA); conditions: Application rate 500 g/Ha, evaluated after 13 days; for Control of weed species after post-emergence application, DIGSA: 100=total damage to plant, 0=no damage; for Control of weed species DIGSA after post-emergence application (100=total damage to plant; 0=no damage to plant): Method A
Outline: as §1

[4] = tested on: Eleusine indica (ELEIN); conditions: Application rate 500 g/Ha, evaluated after 13 days; for Control of weed species after post-emergence application, ELEIN: 100=total damage to plant, 0=no damage; for Control of weed species ELEIN after post-emergence application (100=total damage to plant; 0=no damage to plant): Method A
Outline: as §1

[5] = tested on: Lolium perenne (LOLPE); conditions: Application rate 500 g/Ha, evaluated after 13 days; for Control of weed species after post-emergence application, LOLPE: 100=total damage to plant, 0=no damage; for Control of weed species LOLPE after post-emergence application (100=total damage to plant; 0=no damage to plant): Method A
Outline: as §1

[6] = tested on: Euphorbia heterophylla (EPHHL); conditions: Application rate 500 g/Ha, evaluated after 13 days; for Control of weed species EPHHL after post-emergence application (100=total damage to plant; 0=no damage to plant): Method A
Outline: as §1

[7] = tested on: Setaria faberi (SETFA); conditions: Application rate 500 g/Ha, evaluated after 13 days; for Control of weed species after post-emergence application, SETFA: 100=total damage to plant, 0=no damage; for Control of weed species SETFA after post-emergence application (100=total damage to plant; 0=no damage to plant): Method A
Outline: as §1

[8] = tested on: Amaranthus palmeri (AMAPA); conditions: Application rate 500 g/Ha, evaluated after 13 days; for Control of weed species after post-emergence application, AMAPA: 100=total damage to plant, 0=no damage; for Control of weed species AMAPA after post-emergence application (100=total damage to plant; 0=no damage to plant): Method A
Outline: as §1

[9] = tested on: Ipomoea hederacea (IPOHE); conditions: Application rate 500 g/Ha, evaluated after 13 days; for Control of weed species after post-emergence application, IPOHE: 100=total damage to plant, 0=no damage; for Control of weed species IPOHE after post-emergence application (100=total damage to plant; 0=no damage to plant): Method A
Outline: as §1

SMILES | Control of weed species after post-emergence application, ECHCG [1] | Control of weed species after post-emergence application, CHEAL [2] | Control of weed species after post-emergence application, DIGSA [3] | Control of weed species after post-emergence application, ELEIN [4] | Control of weed species after post-emergence application, LOLPE [5] | Control of weed species after post-emergence application, EPHHL ([6]; 100=total damage to plant, 0=no damage) | Control of weed species after post-emergence application, SETFA [7] | Control of weed species after post-emergence application, AMAPA [8] | Control of weed species after post-emergence application, IPOHE [9] | Control of weed species ECHCG after post-emergence application (100=total damage to plant; 0=no damage to plant) [1] | Control of weed species LOLPE after post-emergence application (100=total damage to plant; 0=no damage to plant) [5] | Control of weed species SETFA after post-emergence application (100=total damage to plant; 0=no damage to plant) [7] | Control of weed species CHEAL after post-emergence application (100=total damage to plant; 0=no damage to plant) [2] | Control of weed species DIGSA after post-emergence application (100=total damage to plant; 0=no damage to plant) [3] | Control of weed species ELEIN after post-emergence application (100=total damage to plant; 0=no damage to plant) [4] | Control of weed species EPHHL after post-emergence application (100=total damage to plant; 0=no damage to plant) [6] | Control of weed species AMAPA after post-emergence application (100=total damage to plant; 0=no damage to plant) [8] | Control of weed species IPOHE after post-emergence application (100=total damage to plant; 0=no damage to plant) [9]
COP(=O)(C[n+]1ccc(-c2ccncn2)cn1)OC.O=S(=O)([O-])C(F)(F)F [Compound A237] | 10 | 10 | 50 | 70 | 10 | 0 | 20 | 60 | 50 | – | – | – | – | – | – | – | – | –
O=C(O)CC[n+]1ccc(-c2ncccn2)cn1.[Cl-] [Compound A26, 3-(4-pyrimidin-2-ylpyridazin-1-ium-1-yl)propanoic Acid Chloride] | – | – | – | – | – | – | – | – | – | 100 | 90 | 100 | – | – | – | – | – | –
CCOP(=O)(O)CC[n+]1ccc(-c2ncccn2)cn1.O=C([O-])C(F)(F)F [Compound A113, ethoxy-[2-(4-pyrimidin-2-ylpyridazin-1-ium-1-yl)ethyl]phosphinate] | – | – | – | – | – | – | – | – | – | 60 | 10 | 50 | 90 | 60 | 40 | 100 | 40 | 60
O=c1cc(-c2cc[n+](CCCS(=O)(=O)[O-])nc2)nc[nH]1 [Compound A116] | – | – | – | – | – | – | – | – | – | 20 | 10 | 30 | 80 | 30 | 20 | 50 | 100 | 10
CCOP(=O)(C[n+]1ccc(-c2ncccn2)cn1)OCC.O=C([O-])C(F)(F)F [Compound A230, 1-(diethoxyphosphorylmethyl)-4-pyrimidin-2-yl-pyridazin-1-ium 2,2,2-trifluoroacetate] | 60 | 60 | 70 | 10 | 0 | – | 50 | 50 | 20 | – | – | – | – | – | – | – | – | –
O=C(O)CC[n+]1ccc(-c2ncccn2)cn1.O=C([O-])C(F)(F)F [Compound A125, 3-(4-pyrimidin-2-ylpyridazin-1-ium-1-yl)propanoic acid 2,2,2-trifluoroacetate] | – | – | – | – | – | – | – | – | – | – | 90 | – | – | – | – | – | – | –
CCOP(=O)(O)CCC[n+]1ccc(-c2ncccn2)cn1 [Compound A232] | 100 | 90 | 90 | 50 | 20 | – | 80 | 100 | 0 | – | – | – | – | – | – | – | – | –
